Where two headings read alike, the source gives them in different places.
Experiments:
[1] = tested on: liver; assay: Peroxisome proliferator induced liver transduction by beta galactosidase vector, XGAL staining; format: in vivo, Balb/C mice
Method: On day 4, 200 ul beta galactosidase retroviral vector (1E9 cfu/ml, DA-Bengal) was injected via tail vein. On day 7, the mice were sacrificed, tissues were fixed in 2% formaldehyde/PBS for 24 hr, and blocked into slices of 2-5 mm. Sections were rinsed in PBS and stained in fresh XGAL solution (5 mM potassium ferricyanide/5 mM potassium ferrocyanide/2 mM MgCl2/0.5mg/ml XGAL in DMF (Gold Scientific)/1×PBS). Tissue was embedded in paraffin (−50 degrees), sectioned at 5 microns (PML, San Diego), and counterstained with Hematoxylin/Eosin.

[2] = tested on: CT26TK Neo; assay: Ganciclovir dose study in mice injected with CT26TK Neo cells (tumor regression); format: in vivo
Method: In order to test whether in vivo transduction of a murine tumor could be used to treat the disease, an experiment was performed to determine the optimal concentration of ganciclovir necessary to eliminate a tumor that was transduced and selected in vitro to assure 100% transduction. Twelve groups of 3 mice each are injected with 2×10^5 CT26TK Neo cells. Six groups of mice are injected with these cells intraperitoneally (I.P.) and six groups of mice are injected subcutaneously (S.C.). Two other groups of 3 mice each are injected with 2×10^5 unmodified CT26 cells (as a control) either I.P. or S.C.
Ten days after the injection of the CT26 or CT26TK Neo cells into these groups of mice, several concentrations of ganciclovir treatment are initiated. Each dose regimen consists of 2 daily AM and PM I.P. injections of ganciclovir.
Tumor measurements were made for 23 days FIG. 11). CT26TK Neo grew only slightly slower than unmodified CT26 in the absence of ganciclovir. […] After 24 days, the I.P. injected animals were sacrificed and evaluated. The optimal concentration for anti-tumor effect was similar whether the tumor was grown I.P. or S.C.

[3] = tested on: CT26; assay: Ganciclovir on in vivo tumor growth of unmodified CT26; parameters: species or system mice; settings: 62.5 mg/Kg I.P. twice daily, S.C. tumor
Method: (§1) In order to determine whether ganciclovir has an effect on the growth of unmodified CT26 tumor cells in vivo, 2 groups of 7 mice are injected S.C. with 2×10^5 unmodified CT26 cells and 2 groups of 7 mice are injected S.C. with 2×10^5 CT26TK Neo cells. Seven days after tumor implantation, one group of CT26 injected mice and one group of CT26TK Neo injected mice are placed on a twice daily (AM and PM) regimen of I.P. ganciclovir at 62.5 mg/Kg. These mice are treated for 12 days or until the CT26TK Neo injected animals have no detectable tumor burden. Tumor growth is monitored over a three week period.

[4] = tested on: CT26TK Neo; assay: Ganciclovir on in vivo tumor growth of CT26TK Neo; parameters: species or system mice; settings: 62.5 mg/Kg I.P. twice daily, S.C. tumor
Method: as §1

[5] = tested on: CT26TK Neo cells; assay: Effect of ganciclovir on CT26TK Neo cells (TK-3 transduced), cell counts; settings: lowest dose 6.25 μg/ml, twice per day for four consecutive days
Method: CT26 cells are transduced with G-pseudotyped TK-3 vector. Twenty-four hours after adding the viral supernatant, the CT26 cells are placed under G-418 selection (450 µg/ml). After 10 days incubation, a G-418 selected pool is obtained and designated CT26TK Neo. CM26 TK Neo cells were seeded into six 10 cm^2 plates at a density of 2.5×10^6 per plate. As controls, each of two other cell types, CT26 and CT26 beta-gal (this cell line was transduced with a retroviral vector carrying the reporter gene β-galactosidase from E. coli.), were also seeded into six 10 cm^2 plates as controls. Five plates of each cell type were treated twice per day for four consecutive days with medium containing ganciclovir concentrations of 100 μg/ml, 50 μg/ml, 25 μg/ml, 12.5 μg/ml and 6.25 μg/ml. One plate of each cell type was left untreated. Afterwards, the cells were removed from each dish using trypsin-EDTA, resuspended in DMEM with 10% FBS and counted.

[6] = tested on: CT26 cells; assay: Effect of ganciclovir on unmodified CT26 cells, cell counts; format: cell-based, mouse
Excerpt: (§2) One plate of each cell type was left untreated.

[7] = tested on: CT26 beta-gal cells; assay: Effect of ganciclovir on CT26 beta-gal cells, cell counts; format: cell-based, mouse
Excerpt: as §2

[8] = Ganciclovir toxicity in the mouse dose study; format: in vivo, mice
[9] = tested on: hepatitis C; settings: six months after termination of treatment; cited from earlier work
[10] = tested on: hepatitis B; settings: cited from earlier work
[11] = tested on: hepatitis D; settings: cited from earlier work
[12] = 6.25 μg/ml or 12.5 μg/ml, twice per day for four days

Cc1cccc(Nc2cc(Cl)nc(SCC(=O)O)n2)c1C [WY 14643]
blue cells in liver (background staining) ([1]; WY liver: mitogen, no vector): No blue cells | blue cells in liver, periportally and on the periphery ([1]; group I: IP 500 μl of 15 mg/ml once per day for 4 days plus beta galactosidase vector): Numerous blue cells | blue cells in liver, periportally and on the periphery ([1]; group II: gavage 200 μl of 15 mg/ml once per day for 4 days plus beta galactosidase vector): Numerous blue cells

Nc1nc(O)c2ncn(COC(CO)CO)c2n1 [ganciclovir]
tumor regression ([2]; 15.63 mg/Kg, compared to untreated control groups): Little or no effect | tumor regression ([2]; 31.25 mg/Kg): Partial tumor regression | tumor regression ([2]; 62.5 mg/Kg regimen, 2 daily I.P. injections): Complete tumor regression | tumor size versus untreated mice [3]: somewhat smaller | tumor burden [4]: dramatic decrease in tumor burden | cytotoxic effect on CT26 TKneo cells [5]: dramatic cytotoxic effect | effect on cell growth [6, 12]: did not have an effect | effect on cell growth ([6]; beginning at 25 ug/ml): dose-dependent decrease in cell growth | effect on cell growth [7, 12]: did not have an effect | effect on cell growth ([7]; beginning at 25 ug/ml): dose-dependent decrease in cell growth | tolerability ([8]; 15.63 mg/Kg, 31.25 mg/Kg and 62.5 mg/Kg groups, treated for an additional 7 days): able to tolerate the treatment | toxicity observed ([8]; 62.5 mg/Kg groups): not life threatening and reversible | survival (toxic effects) ([8]; 125 mg/Kg, 250 mg/Kg and 500 mg/Kg groups, 2 daily I.P. injections, after 5 days): dead due to the toxic effects

alpha interferon
responders relapsed [9]: half | patients responding to treatment ([10]; patients infected as adults): about 35% | patients responding to treatment ([10]; perinatal infectees): about 10% | responders relapsed ([11]; in vivo): 85-90% | patients responding to therapy ([11]; pilot studies): 25-60%
